Test results published in paper PMC7303061, “Alternaria toxins as casein kinase 2 inhibitors and possible consequences for estrogenicity: a hybrid in silico/in vitro study” (Archives of Toxicology, 2020).
Where two headings read alike, the source gives them in different places.

Key:
casein kinase 2 (CK2α1) [1] = molecular target: T1, casein kinase 2 (CK2α1) (Homo sapiens, UniProt P68400); experiment: cell-free ADP-Glo kinase assay with recombinant CK2α[…] and casein, […] ATP; format: biochemical
T1 construct: gene CSNK2A1; recombinant CK2α1
T1 sequence (P68400 whole entry): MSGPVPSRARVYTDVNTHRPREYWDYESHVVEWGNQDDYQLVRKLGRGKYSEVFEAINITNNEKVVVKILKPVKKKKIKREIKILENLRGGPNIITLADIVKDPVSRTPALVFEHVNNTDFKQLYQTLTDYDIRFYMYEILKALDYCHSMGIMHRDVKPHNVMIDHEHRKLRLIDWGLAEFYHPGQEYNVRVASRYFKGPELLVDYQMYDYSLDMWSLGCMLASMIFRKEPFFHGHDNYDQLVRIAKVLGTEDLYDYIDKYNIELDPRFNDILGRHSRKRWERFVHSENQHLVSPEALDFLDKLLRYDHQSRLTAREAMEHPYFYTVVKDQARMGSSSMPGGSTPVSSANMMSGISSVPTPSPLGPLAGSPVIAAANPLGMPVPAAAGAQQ

casein kinase 2 (CK2α1) [2] = molecular target: T1, casein kinase 2 (CK2α1); experiment: cell-free ADP-Glo kinase assay, single concentration ([…]) positive control; format: biochemical

SMILES: Cc1cc(O)cc2oc(=O)c3c(O)cc(O)cc3c12 [AOH, alternariol]
- IC50 (casein kinase 2 (CK2α1) [1]): 707 nM

SMILES: O=C1CC[C@]2(O)c3c(ccc(O)c31)-c1ccc(O)c3c1C2[C@H]1O[C@H]1C3=O (stereo partly drawn) [ATX-II, altertoxin II]
- IC50 (casein kinase 2 (CK2α1) [1]; read-out: IC50): 5100 nM

SMILES: O=c1c(O)c(-c2ccc(O)c(O)c2)oc2cc(O)cc(O)c12 [QUE, quercetin]
- inhibition at 10 µM (casein kinase 2 (CK2α1) [2]): 94%
